Laboratory results: PubChem BioAssay AID330 (DTP/NCI, 2004)
Values joined by “and” are separate entries in the source; they are usually repeats but may differ in a detail not shown here. Equal values may be shown once. Toxic doses and inconclusive results are not listed. How the source made its calls: active means survival T/C of 150% or more; inactive means T/C below 125% in these data.

Test system: P388 leukemia ip, CD2F1 mice, survival T/C
Test: NCI In Vivo Anticancer Drug Screen. Data for tumor model P388 Leukemia (intraperitoneal) in CD2F1 (CDF1) mice
Details: endpoint: median survival time, higher = longer survival
Method in brief: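 Mice carrying the transplanted tumor received test compound or vehicle. Survival was recorded in each group, and the value is the treated-group measurement divided by that of the vehicle-treated control group.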

[1] = dose: 50.0 mg/kg/injection, schedule: Q01DX009 (ip), vehicle: Klucel (hydroxypropylcellulose) (HPC)
[2] = dose: 100.0 mg/kg/injection, schedule: Q01DX009 (ip), vehicle: Klucel (hydroxypropylcellulose) (HPC)
[3] = dose: 50.0 mg/kg/injection, schedule: Q01DX005 (ip), vehicle: Klucel (hydroxypropylcellulose) (HPC)
[4] = dose: 100.0 mg/kg/injection, schedule: Q01DX005 (ip), vehicle: Klucel (hydroxypropylcellulose) (HPC)
[5] = dose: 200.0 mg/kg/injection, schedule: Q01DX005 (ip), vehicle: Klucel (hydroxypropylcellulose) (HPC)
[6] = dose: 50.0 mg/kg/injection, schedule: Q01DX009 (ip), vehicle: saline
[7] = dose: 100.0 mg/kg/injection, schedule: Q01DX009 (ip), vehicle: saline
[8] = dose: 200.0 mg/kg/injection, schedule: Q01DX009 (ip), vehicle: saline
[9] = dose: 6.25 mg/kg/injection, schedule: Q01DX009 (ip), vehicle: Klucel (hydroxypropylcellulose) (HPC)
[10] = dose: 12.5 mg/kg/injection, schedule: Q01DX009 (ip), vehicle: Klucel (hydroxypropylcellulose) (HPC)
[11] = dose: 25.0 mg/kg/injection, schedule: Q01DX009 (ip), vehicle: Klucel (hydroxypropylcellulose) (HPC)
[12] = dose: 60.0 mg/kg/injection, schedule: Q01DX005 (ip), vehicle: saline with Tween-80
[13] = dose: 120.0 mg/kg/injection, schedule: Q01DX005 (ip), vehicle: saline with Tween-80
[14] = dose: 240.0 mg/kg/injection, schedule: Q01DX005 (ip), vehicle: saline with Tween-80
[15] = dose: 50.0 mg/kg/injection, schedule: Q01DX005 (ip), vehicle: saline with Tween-80
[16] = dose: 100.0 mg/kg/injection, schedule: Q01DX005 (ip), vehicle: saline with Tween-80
[17] = dose: 200.0 mg/kg/injection, schedule: Q01DX005 (ip), vehicle: saline with Tween-80
[18] = dose: 12.5 mg/kg/injection, schedule: Q01DX005 (ip), vehicle: Klucel (hydroxypropylcellulose) (HPC)
[19] = dose: 25.0 mg/kg/injection, schedule: Q01DX005 (ip), vehicle: Klucel (hydroxypropylcellulose) (HPC)

Measured: T/C

CN(C)C(=O)ONC(=O)c1ccccc1
inactive: [1] 105 % of control | [2] 109 % of control | dose: 200.0 mg/kg/injection, schedule: Q01DX009 (ip), vehicle: Klucel (hydroxypropylcellulose) (HPC) 108 % of control

CC(C)CC(C)NC(C)CC(C)C (centres undefined)
inactive: dose: 12.5 mg/kg/injection, schedule: Q01DX005 (ip), vehicle: saline 90 % of control | dose: 25.0 mg/kg/injection, schedule: Q01DX005 (ip), vehicle: saline 97 % of control | dose: 50.0 mg/kg/injection, schedule: Q01DX005 (ip), vehicle: saline 102 % of control and 92 % of control

O=c1c2ccccc2cc2n1CCN2
inactive: [3] 96 % of control | [4] 112 % of control | [5] 107 % of control

CCOC(=O)c1ccc(NC(=O)Nc2n[nH]c(NC(=O)Nc3ccc(C(=O)OCC)cc3)n2)cc1
inactive: dose: 12.5 mg/kg/injection, schedule: Q01DX009 (ip), vehicle: distilled water + Tween-80 95 % of control | dose: 25.0 mg/kg/injection, schedule: Q01DX009 (ip), vehicle: distilled water + Tween-80 114 % of control | dose: 50.0 mg/kg/injection, schedule: Q01DX009 (ip), vehicle: distilled water + Tween-80 89 % of control | dose: 100.0 mg/kg/injection, schedule: Q01DX009 (ip), vehicle: distilled water + Tween-80 88 % of control

CN1C(=O)C23CCCN2C(=O)C1(C)SC(=O)S3 (centres undefined)
inactive: [6] 98 % of control | [7] 101 % of control | [8] 98 % of control

CC1CCC2(NC1)OC1CC3C4CCC5CC(N)CCC5(C)C4CCC3(C)C1C2C (centres undefined)
inactive: [9] 105 % of control | [10] 95 % of control | [11] 106 % of control | [1] 110 % of control

C=C1C(=O)C23C(OC(=O)/C=C/C)C1CCC2C12COC3(O)C(O)C1C(C)(C)CCC2O (centres undefined)
inactive: dose: 3.75 mg/kg/injection, schedule: Q01DX009 (ip), vehicle: saline with Tween-80 103 % of control | dose: 7.5 mg/kg/injection, schedule: Q01DX009 (ip), vehicle: saline with Tween-80 108 % of control | dose: 15.0 mg/kg/injection, schedule: Q01DX009 (ip), vehicle: saline with Tween-80 112 % of control

NCC1OC(OC2C(CO)OC(OC3C(O)C(N)CC(N)C3OC3OC(CN)C(O)C(O)C3N)C2O)C(N)C(O)C1O (centres undefined)
inactive: dose: 100.0 mg/kg/injection, schedule: Q01DX001 (ip), vehicle: saline 100 % of control | dose: 200.0 mg/kg/injection, schedule: Q01DX001 (ip), vehicle: saline 96 % of control

Cn1cnc([N+](=O)[O-])c1Sc1n[nH]c(N)n1
inactive: [3] 111 % of control | [4] 117 % of control | [5] 108 % of control

O=C(O)[C@@H]1CCC(c2ccccc2)=N1
inactive: dose: 50.0 mg/kg/injection, schedule: Q01DX005 (ip), vehicle: distilled water + alcohol 98 % of control | dose: 100.0 mg/kg/injection, schedule: Q01DX005 (ip), vehicle: distilled water + alcohol 98 % of control | dose: 200.0 mg/kg/injection, schedule: Q01DX005 (ip), vehicle: distilled water + alcohol 98 % of control

O=C(c1ccccc1)C(O)(CC(c1ccccc1)[P+](c1ccccc1)(c1ccccc1)c1ccccc1)c1ccccc1 (centres undefined)
inactive: dose: 1.32 mg/kg/injection, schedule: Q01DX009 (ip), vehicle: saline with Tween-80 90 % of control | dose: 2.0 mg/kg/injection, schedule: Q01DX009 (ip), vehicle: saline with Tween-80 104 % of control | dose: 3.0 mg/kg/injection, schedule: Q01DX009 (ip), vehicle: saline with Tween-80 113 % of control | dose: 4.5 mg/kg/injection, schedule: Q01DX009 (ip), vehicle: saline with Tween-80 118 % of control

CCOC(=O)C1=CC(C(=O)OCC)=C2C=CC=C3C=CC=C1N32
inactive: [12] 93 % of control | [13] 90 % of control | [14] 88 % of control

C(#CC12CC3CC(CC(C3)C1)C2)C12CC3CC(CC(C3)C1)C2
inactive: [3] 98 % of control | [4] 92 % of control | [5] 91 % of control

O=C1NN2CCN=C2c2ncccc21
inactive: [12] 104 % of control | [13] 94 % of control | [14] 87 % of control

Cc1ccc(S(=O)(=O)OCC(OS(=O)(=O)c2ccc(C)cc2)C2OC3OC(C)(C)OC3C2O)cc1 (centres undefined)
inactive: [15] 103 % of control | [16] 97 % of control | [17] 96 % of control

COC(=O)c1oc2c(c1C(=O)OC)c1ccccc1n2C(C)=O
inactive: dose: 100.0 mg/kg/injection, schedule: Q04DX002 (ip), vehicle: saline with Tween-80 102 % of control | dose: 200.0 mg/kg/injection, schedule: Q04DX002 (ip), vehicle: saline with Tween-80 105 % of control | dose: 400.0 mg/kg/injection, schedule: Q04DX002 (ip), vehicle: saline with Tween-80 100 % of control

OC1(CN2CCCCC2)CCCOCCCOCCCOCCCOCCCOCCC1
inactive: [15] 94 % of control | [16] 99 % of control | [17] 100 % of control

O=C1SCCC1CO (centres undefined)
inactive: dose: 25.0 mg/kg/injection, schedule: Q04DX003 (ip), vehicle: saline 100 % of control | dose: 50.0 mg/kg/injection, schedule: Q04DX003 (ip), vehicle: saline 106 % of control

COc1ccc(/C=N/N2CN(C(C)C(=O)O)B(NC34CC5CC(CC(C5)C3)C4)N=C2N)cc1OC (centres undefined)
inactive: [12] 104 % of control | [13] 99 % of control | [14] 93 % of control

CCCCCCCCCC[N+](C)([O-])CCCCCC[N+](C)([O-])CCCCCCCCCC (centres undefined)
inactive: dose: 50.0 mg/kg/injection, schedule: Q04DX003 (ip), vehicle: saline with Tween-80 102 % of control | dose: 100.0 mg/kg/injection, schedule: Q04DX003 (ip), vehicle: saline with Tween-80 99 % of control

CCOC(=O)C(C(C)N1CCOCC1)N1CCOCC1 (centres undefined)
inactive: [3] 110 % of control | [4] 100 % of control | [5] 101 % of control

COc1cc(/C=C/c2ccc(O)c(OC)c2)cc(OC)c1
inactive: dose: 6.25 mg/kg/injection, schedule: Q01DX005 (ip), vehicle: Klucel (hydroxypropylcellulose) (HPC) 104 % of control | [18] 107 % of control | [19] 100 % of control | [3] 104 % of control and 108 % of control | [4] 95 % of control | [5] 88 % of control

C=C1C(=O)OC2/C=C(CO)/C=C\C3OC3(C)CC(OC(=O)/C(=C/C)CO)C12 (centres undefined)
inactive: [18] 106 % of control and 97 % of control | [19] 99 % of control and 103 % of control and 116 % of control | [3] 109 % of control and 111 % of control

CCn1c2ccccc2c2cc(/C=N/N=C/c3ccc4c(c3)c3ccccc3n4CC)ccc21
inactive: dose: 3.12 mg/kg/injection, schedule: Q01DX005 (ip), vehicle: saline with Tween-80 93 % of control | dose: 6.25 mg/kg/injection, schedule: Q01DX005 (ip), vehicle: saline with Tween-80 90 % of control | dose: 12.5 mg/kg/injection, schedule: Q01DX005 (ip), vehicle: saline with Tween-80 88 % of control

O=C(O)CC1C=CC2C=CC1C=C2 (centres undefined)
inactive: [15] 101 % of control | [16] 100 % of control | [17] 99 % of control

O=[N+]([O-])c1ccc(Cl)nc1Sc1ncccn1
inactive: [9] 96 % of control | [10] 91 % of control | [11] 104 % of control | [2] 95 % of control

O=C(CBr)NCC1OC(n2cnc3c(=O)[nH]cnc32)C(O)C1O (centres undefined)
inactive: [19] 99 % of control | [3] 96 % of control | [4] 99 % of control

CN(C)c1nc(N(C)C)nc([N+]23CN4CN(CN(C4)C2)C3)n1
inactive: dose: 50.0 mg/kg/injection, schedule: Q01DX009 (ip), vehicle: saline with Tween-80 114 % of control | dose: 100.0 mg/kg/injection, schedule: Q01DX009 (ip), vehicle: saline with Tween-80 108 % of control | dose: 200.0 mg/kg/injection, schedule: Q01DX009 (ip), vehicle: saline with Tween-80 114 % of control

O=S1(=O)CCN(Cc2ccccn2)CC1
inactive: [6] 94 % of control | [7] 94 % of control | [8] 91 % of control

CC(=O)Nc1ccc(S(=O)(=O)Nc2ccc3oc(=O)[nH]c3c2)cc1
inactive: dose: 100.0 mg/kg/injection, schedule: Q01DX001 (ip), vehicle: Klucel (hydroxypropylcellulose) (HPC) 98 % of control | dose: 200.0 mg/kg/injection, schedule: Q01DX001 (ip), vehicle: Klucel (hydroxypropylcellulose) (HPC) 93 % of control | dose: 400.0 mg/kg/injection, schedule: Q01DX001 (ip), vehicle: Klucel (hydroxypropylcellulose) (HPC) 92 % of control
